Data: patent US7064128B2, “Preferentially substituted calcium channel blockers” (NeuroMed Technologies, Inc., priority 1998, dated 2006)
Like-named read-outs stand apart in the source and are kept apart here.

Assays:
Type in all cases: cell-based
[1] = biological target: T1, N-type calcium channels (α1B+α2δ+β1b cDNA subunits) (Rattus norvegicus, UniProt Q02294); assay: Whole cell patch clamp, tonic and frequency dependent block, N-type channels in HEK 293 (Example 5); conditions: for % Block (100 nM) 0.03 Hz: 0.03 Hz (tonic block); for % Block (100 nM) 0.2 Hz: 0.2 Hz (frequency dependent block)
T1 construct: expressed in transfected cells
T1 sequence (Q02294 whole entry): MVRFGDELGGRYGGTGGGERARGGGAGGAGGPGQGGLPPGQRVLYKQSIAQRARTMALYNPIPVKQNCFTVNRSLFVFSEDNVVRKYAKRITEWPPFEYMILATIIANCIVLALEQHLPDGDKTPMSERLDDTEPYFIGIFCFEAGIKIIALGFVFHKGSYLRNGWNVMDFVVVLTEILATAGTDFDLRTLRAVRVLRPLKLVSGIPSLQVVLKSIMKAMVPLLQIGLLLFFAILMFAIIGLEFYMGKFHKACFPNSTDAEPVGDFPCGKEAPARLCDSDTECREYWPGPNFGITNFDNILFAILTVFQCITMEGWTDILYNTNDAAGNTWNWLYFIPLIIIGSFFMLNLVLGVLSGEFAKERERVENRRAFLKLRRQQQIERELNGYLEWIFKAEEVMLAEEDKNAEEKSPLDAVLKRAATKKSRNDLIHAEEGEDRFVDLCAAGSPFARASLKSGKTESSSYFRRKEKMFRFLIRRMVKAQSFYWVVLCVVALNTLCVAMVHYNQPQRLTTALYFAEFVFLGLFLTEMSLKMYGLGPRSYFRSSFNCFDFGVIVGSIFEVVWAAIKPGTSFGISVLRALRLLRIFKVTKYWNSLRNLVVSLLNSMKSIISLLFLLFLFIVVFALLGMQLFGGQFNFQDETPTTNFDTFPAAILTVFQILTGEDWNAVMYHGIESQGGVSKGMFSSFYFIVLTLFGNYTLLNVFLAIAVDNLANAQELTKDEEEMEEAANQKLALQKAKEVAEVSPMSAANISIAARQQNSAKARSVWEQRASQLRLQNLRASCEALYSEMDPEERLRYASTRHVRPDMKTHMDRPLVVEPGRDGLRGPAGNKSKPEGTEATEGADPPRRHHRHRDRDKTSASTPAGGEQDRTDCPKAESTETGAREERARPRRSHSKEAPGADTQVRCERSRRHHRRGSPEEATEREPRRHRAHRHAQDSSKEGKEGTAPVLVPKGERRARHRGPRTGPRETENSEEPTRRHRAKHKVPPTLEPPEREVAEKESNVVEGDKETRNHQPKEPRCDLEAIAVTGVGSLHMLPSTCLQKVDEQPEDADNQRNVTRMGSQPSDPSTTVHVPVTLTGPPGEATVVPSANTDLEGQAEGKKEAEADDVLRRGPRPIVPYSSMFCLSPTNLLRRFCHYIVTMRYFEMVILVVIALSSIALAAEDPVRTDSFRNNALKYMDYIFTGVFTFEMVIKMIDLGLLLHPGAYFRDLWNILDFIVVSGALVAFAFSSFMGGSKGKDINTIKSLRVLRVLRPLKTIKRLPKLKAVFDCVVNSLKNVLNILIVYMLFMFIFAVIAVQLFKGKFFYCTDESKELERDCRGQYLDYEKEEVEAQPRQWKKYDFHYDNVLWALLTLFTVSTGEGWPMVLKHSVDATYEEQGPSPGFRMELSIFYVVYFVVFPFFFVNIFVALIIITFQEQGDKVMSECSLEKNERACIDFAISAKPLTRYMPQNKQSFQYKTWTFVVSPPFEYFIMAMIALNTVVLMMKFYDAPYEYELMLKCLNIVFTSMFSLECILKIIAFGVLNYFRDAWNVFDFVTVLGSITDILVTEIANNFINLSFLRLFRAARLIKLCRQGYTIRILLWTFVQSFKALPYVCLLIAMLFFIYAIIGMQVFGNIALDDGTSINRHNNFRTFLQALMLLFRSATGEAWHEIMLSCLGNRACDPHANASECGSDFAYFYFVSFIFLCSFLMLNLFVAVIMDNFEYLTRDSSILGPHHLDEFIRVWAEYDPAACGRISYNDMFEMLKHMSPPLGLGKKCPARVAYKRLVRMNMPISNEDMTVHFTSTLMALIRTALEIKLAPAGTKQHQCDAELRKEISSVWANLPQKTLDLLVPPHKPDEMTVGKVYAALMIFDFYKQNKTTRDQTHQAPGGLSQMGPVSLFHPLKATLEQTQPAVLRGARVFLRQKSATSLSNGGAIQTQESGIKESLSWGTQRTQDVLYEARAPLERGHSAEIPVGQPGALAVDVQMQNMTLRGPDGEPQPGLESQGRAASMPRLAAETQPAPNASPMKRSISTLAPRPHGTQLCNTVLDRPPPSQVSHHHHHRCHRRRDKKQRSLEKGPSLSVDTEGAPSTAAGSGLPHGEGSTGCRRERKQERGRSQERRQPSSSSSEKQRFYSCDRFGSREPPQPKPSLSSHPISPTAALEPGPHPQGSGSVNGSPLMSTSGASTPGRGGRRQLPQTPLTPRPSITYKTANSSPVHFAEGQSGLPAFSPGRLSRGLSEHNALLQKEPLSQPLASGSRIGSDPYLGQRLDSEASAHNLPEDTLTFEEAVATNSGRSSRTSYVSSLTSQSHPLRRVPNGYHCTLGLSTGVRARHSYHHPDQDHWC
T1 sequence (P54290 25-944 partner limits assumed): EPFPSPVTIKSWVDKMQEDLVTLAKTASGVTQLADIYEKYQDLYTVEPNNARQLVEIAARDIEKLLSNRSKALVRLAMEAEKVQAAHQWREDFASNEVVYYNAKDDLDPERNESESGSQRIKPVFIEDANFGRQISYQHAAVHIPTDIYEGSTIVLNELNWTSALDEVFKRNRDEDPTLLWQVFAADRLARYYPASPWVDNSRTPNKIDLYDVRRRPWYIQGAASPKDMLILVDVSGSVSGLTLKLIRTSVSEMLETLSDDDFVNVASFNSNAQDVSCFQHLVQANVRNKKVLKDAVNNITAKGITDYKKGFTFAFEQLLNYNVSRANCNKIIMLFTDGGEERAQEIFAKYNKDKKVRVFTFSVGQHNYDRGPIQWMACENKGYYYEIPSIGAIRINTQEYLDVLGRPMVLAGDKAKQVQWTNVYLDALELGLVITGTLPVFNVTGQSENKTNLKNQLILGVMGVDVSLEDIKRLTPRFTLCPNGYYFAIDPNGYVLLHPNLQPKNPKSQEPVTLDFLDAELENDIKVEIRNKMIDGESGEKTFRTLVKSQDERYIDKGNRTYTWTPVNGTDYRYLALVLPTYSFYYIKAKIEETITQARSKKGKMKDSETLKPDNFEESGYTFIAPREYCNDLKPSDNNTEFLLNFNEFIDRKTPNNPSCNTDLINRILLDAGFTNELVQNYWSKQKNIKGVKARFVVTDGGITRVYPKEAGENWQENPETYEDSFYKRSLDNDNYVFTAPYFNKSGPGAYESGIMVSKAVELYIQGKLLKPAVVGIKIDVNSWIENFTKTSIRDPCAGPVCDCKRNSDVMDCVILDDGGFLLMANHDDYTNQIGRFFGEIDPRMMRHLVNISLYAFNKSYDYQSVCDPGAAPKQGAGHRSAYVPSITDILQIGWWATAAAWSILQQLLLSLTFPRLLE
T1 sequence (P54290 945-1091 partner limits assumed): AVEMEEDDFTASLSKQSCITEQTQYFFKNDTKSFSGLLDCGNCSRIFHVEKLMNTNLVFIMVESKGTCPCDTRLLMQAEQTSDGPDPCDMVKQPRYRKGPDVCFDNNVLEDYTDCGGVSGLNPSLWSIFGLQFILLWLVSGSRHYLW
T1 sequence (P54283 whole entry partner): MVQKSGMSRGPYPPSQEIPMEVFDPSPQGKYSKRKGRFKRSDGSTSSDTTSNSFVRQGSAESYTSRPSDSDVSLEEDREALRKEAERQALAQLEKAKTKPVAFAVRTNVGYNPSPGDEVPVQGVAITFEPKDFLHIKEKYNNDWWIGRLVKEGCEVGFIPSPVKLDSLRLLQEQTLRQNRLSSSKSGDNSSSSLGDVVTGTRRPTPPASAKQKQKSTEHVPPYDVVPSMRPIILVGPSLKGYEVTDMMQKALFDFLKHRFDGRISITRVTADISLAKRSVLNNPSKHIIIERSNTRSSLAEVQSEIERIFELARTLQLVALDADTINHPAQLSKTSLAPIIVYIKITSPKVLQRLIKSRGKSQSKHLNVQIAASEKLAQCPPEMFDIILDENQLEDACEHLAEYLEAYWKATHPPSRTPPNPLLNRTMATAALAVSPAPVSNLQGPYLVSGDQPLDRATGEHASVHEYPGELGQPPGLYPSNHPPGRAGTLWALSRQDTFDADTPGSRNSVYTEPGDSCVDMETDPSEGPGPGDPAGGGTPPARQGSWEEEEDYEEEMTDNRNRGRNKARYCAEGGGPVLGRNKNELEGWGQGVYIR
Experimental: (§1) N-type calcium channel blocking activity was assayed in human embryonic kidney cells, HEK 293, stably transfected with the rat brain N-type calcium channel subunits (α1B+α2δ+β1b cDNA subunits). Alternatively, N-type calcium channels (α1B+α2δ+β1b cDNA subunits), L-type channels (α1C+α2δ+β1b cDNA subunits) and P/Q-type channels (α1A+α2δ+β1b cDNA subunits) were transiently expressed in HEK 293 cells. Briefly, cells were cultured in Dulbecco's modified eagle medium (DMEM) supplemented with 10% fetal bovine serum, 200 U/ml penicillin and 0.2 mg/ml streptomycin at 37° C. with 5% CO2. At 85% confluency cells were split with 0.25% trypsin/1 mM EDTA and plated at 10% confluency on glass coverslips. At 12 hours the medium was replaced and the cells transiently transfected using a standard calcium phosphate protocol and the appropriate calcium channel cDNAs. Fresh DMEM was supplied and the cells transferred to 28° C./5% CO2. Cells were incubated for 1 to 2 days to whole cell recording.
(§2) Whole cell patch clamp experiments were performed using an Axopatch 200B amplifier (Axon Instruments, Burlingame, Calif.) linked to a personal computer equipped with pCLAMP software. The external and internal recording solutions contained, respectively, 5 mM BaCl2, 1 mM MgCl2, 10 mM HEPES, 40 mM TEACl, 10 mM glucose, 87.5 mM CsCl (pH 7.2) and 108 mM CsMS, 4 mM MgCl2, 9 mM EGTA, 9 mM HEPES (pH 7.2). Currents were typically elicited from a holding potential of −80 mV to +10 mV using Clampex software (Axon Instruments). Typically, currents were first elicited with low frequency stimulation (0.03 Hz) and allowed to stabilize prior to application of the compounds. The compounds were then applied during the low frequency pulse trains for two to three minutes to assess tonic block, and subsequently the pulse frequency was increased to 0.2 Hz to assess frequency dependent block. Data were analyzed using Clampfit (Axon Instruments) and SigmaPlot 4.0 (Jandel Scientific).

[2] = biological target: P/Q-type channels (α1A+α2δ+β1b cDNA subunits) (UniProt P54282); assay: Whole cell patch clamp, tonic and frequency dependent block, P/Q-type channels in HEK 293 (Example 5)
Experimental: as §1, §2
(§3) Tables 2 and 3 show the results of similar experiments conducted with P/Q-type and L-type channels expressed in HEK 293 cells.

[3] = biological target: T2, L-type channels (α1C+α2δ+β1b cDNA subunits) (UniProt P22002); assay: Whole cell patch clamp, tonic and frequency dependent block, L-type channels in HEK 293 (Example 5)
T2 construct: other: α1C (L-type), 100 nM, 0.03 Hz; other: α1C (L-type), 100 nM, 0.2 Hz; other: α1C (L-type), 0.03 Hz; other: α1C (L-type), 0.2 Hz
Experimental: as §1, §2, §3

[4] = biological target: T3, rat α1B+α2b+β1b channels (N-type channels) (Rattus norvegicus, UniProt Q02294); assay: Whole cell patch recordings, N-type calcium channel block (Examples 1 and 4); conditions: block of N-type calcium channels, HEK cells, 5 mM barium as charge carrier
T3 construct: expressed in transfected cells
T3 sequence (Q02294 whole entry): as the sequence (Q02294 whole entry) above
T3 sequence (P54290 25-944 partner limits assumed): as the sequence (P54290 25-944 partner limits assumed) above
T3 sequence (P54290 945-1091 partner limits assumed): as the sequence (P54290 945-1091 partner limits assumed) above
T3 sequence (P54283 whole entry partner): as the sequence (P54283 whole entry partner) above
Experimental: Antagonist activity was measured using whole cell patch recordings on human embryonic kidney cells either stably or transiently expressing rat α1B+α2b+β1b channels (N-type channels) with 5 mM barium as a charge carrier.
For transient expression, host cells, such as human embryonic kidney cells, HEK 293 (ATCC# CRL 1573) were grown in standard DMEM medium supplemented with 2 mM glutamine and 10% fetal bovine serum. HEK 293 cells were transfected by a standard calcium-phosphate-DNA coprecipitation method using the rat α1B+β1b+α2δ N-type calcium channel subunits in a vertebrate expression vector (for example, see Current Protocols in Molecular Biologyl ).
After an incubation period of from 24 to 72 hrs the culture medium was removed and replaced with external recording solution (see below). Whole cell patch clamp experiments were performed using an Axopatch 200B amplifier (Axon Instruments, Burlingame, Calif.) linked to an IBM compatible personal computer equipped with pCLAMP software. Borosilicate glass patch pipettes (Sutter Instrument Co., Novato, Calif.) were polished (Microforge, Narishige, Japan) to a resistance of about 4 MΩ when filled with cesium methanesulfonate internal solution (composition in MM: 109 CsCH3SO4, 4 MgCl2, 9 EGTA, 9 HEPES, pH 7.2). Cells were bathed in 5 mM Ba^++ (in mM: 5 BaCl2, 1 MgCl2, 10 HEPES, 40 tetraethylammonium chloride, 10 glucose, 87.5 CsCl pH 7.2). Current data shown were elicited by a train of 100 ms test pulses at 0.066 Hz from −100 mV and/or −80 mV to various potentials (min. −20 mV, max. +30 mV). Drugs were perfused directly into the vicinity of the cells using a microperfusion system.
Normalized dose-response curves were fit (Sigmaplot 4.0, SPSS Inc., Chicago, Ill.) by the Hill equation to determine IC50 values. Steady-state inactivation curves were plotted as the normalized test pulse amplitude following 5 s inactivating prepulses at +10 mV increments. Inactivation curves were fit (Sigmaplot 4.0) with the Boltzman equation, Ipeak (normalized)=1/(1+exp((V−Vh)z/25.6)), where V and Vh are the conditioning and half inactivation potentials, respectively, and z is the slope factor.

[5] = Table 4 summary, 0.2 Hz, N-type, unit not given in Table 4 (μM in Table 1), read-out: N (IC50 values)
[6] = α1B (N-type), 0.03 Hz, read-out: Estimated IC50 (μM) 0.03 Hz
[7] = α1B (N-type), 0.2 Hz, read-out: Estimated IC50 (μM) 0.2 Hz
[8] = Table 4 summary, 0.2 Hz, P/Q-type, unit not given in Table 4 (μM in Table 2), read-out: P/Q (IC50 values)
[9] = α1A (P/Q-type), 0.03 Hz, read-out: Estimated IC50 (μM) 0.03 Hz
[10] = α1A (P/Q-type), 0.2 Hz, read-out: Estimated IC50 (μM) 0.2 Hz
[11] = Table 4 summary, 0.2 Hz, L-type, unit not given in Table 4 (μM in Table 3), read-out: L (IC50 values)
[12] = α1C (L-type), 0.03 Hz, read-out: Estimated IC50 (μM) 0.03 Hz
[13] = α1C (L-type), 0.2 Hz, read-out: Estimated IC50 (μM) 0.2 Hz

Row | Structure (SMILES) | IC50 [1, 5] | % Block (100 nM) 0.03 Hz ([1]; α1B (N-type)) | % Block (100 nM) 0.2 Hz ([1]; α1B (N-type)) | IC50 [1, 6] | IC50 [1, 7] | IC50 [2, 8] | % Block (100 nM) 0.03 Hz ([2]; α1A (P/Q-type), 0.03 Hz) | % Block (100 nM) 0.2 Hz ([2]; α1A (P/Q-type), 0.2 Hz) | IC50 [2, 9] | IC50 [2, 10] | IC50 [3, 11] | % Block (100 nM) 0.03 Hz ([3]; α1C (L-type), 0.03 Hz) | % Block (100 nM) 0.2 Hz ([3]; α1C (L-type), 0.2 Hz) | IC50 [3, 12] | IC50 [3, 13] | IC50 [4]
1 | C(CCN1CCN(CC2CCCCC2)CC1)=C(c1ccccc1)c1ccccc1 [Φ, Φ; C═CH(CH2)2; N; 1; Cy] |  |  |  |  |  |  |  |  |  |  |  |  |  |  |  | 5.2 µM
2 | c1ccc(C(CN2CCN(CC3CCCCC3)CC2)C2CCCCC2)cc1 (stereo not shown) [Φ, Cy; CHCH2; N; 1; Cy] |  |  |  |  |  |  |  |  |  |  |  |  |  |  |  | 20.2 µM
3 | O=C(C(c1ccccc1)C1CCCCC1)N1CCN(CC=Cc2ccccc2)CC1 (stereo not shown) [Φ, Cy; CHCO; N; 1; CH═CHΦ] |  |  |  |  |  |  |  |  |  |  |  |  |  |  |  | 5.9 µM
4 | c1ccc(CCN2CCN(CCCCCC(c3ccccc3)C3CCCCC3)CC2)cc1 (stereo not shown) [Φ, Cy; CH(CH2)5; N; 2; Φ] |  |  |  |  |  |  |  |  |  |  |  |  |  |  |  | 3.1 µM
5 | c1ccc(C(CCN2CCC(NCC3CCCCC3)CC2)c2ccccc2)cc1 [Φ, Φ; CH(CH2)2; CHNH; 1; Cy] |  |  |  |  |  |  |  |  |  |  |  |  |  |  |  | 2 to 3 µM

Continued, values first:

Row | IC50 [1, 5] | % Block (100 nM) 0.03 Hz ([1]; α1B (N-type)) | % Block (100 nM) 0.2 Hz ([1]; α1B (N-type)) | IC50 [1, 6] | IC50 [1, 7] | IC50 [2, 8] | % Block (100 nM) 0.03 Hz ([2]; α1A (P/Q-type), 0.03 Hz) | % Block (100 nM) 0.2 Hz ([2]; α1A (P/Q-type), 0.2 Hz) | IC50 [2, 9] | IC50 [2, 10] | IC50 [3, 11] | % Block (100 nM) 0.03 Hz ([3]; α1C (L-type), 0.03 Hz) | % Block (100 nM) 0.2 Hz ([3]; α1C (L-type), 0.2 Hz) | IC50 [3, 12] | IC50 [3, 13] | IC50 [4] | Structure (SMILES)
6 | 0.13 µM | 9% | 45% | 1.27 µM | 0.13 µM | 0.13 µM | 16% | 44% | 0.55 µM | 0.13 µM | 0.74 µM | 8% | 14% | 2.06 µM | 0.74 µM |  | O=C(/C=C/c1ccc2c(c1)OCO2)N1CCN(C(=O)CCCCC(c2ccccc2)c2ccccc2)CC1 [SH-123B]
7 |  |  |  |  |  |  |  |  |  |  |  |  |  |  |  | 0.75 µM | O=C(CCCCC(c1ccccc1)c1ccccc1)N1CCC(NCC2CCCCC2)CC1 [Φ, Φ; CH(CH2)4CO; CHNH; 1; Cy]
8 | 0.09 µM | 19% | 55% | 0.47 µM | 0.09 µM | 0.07 µM | 29% | 61% | 0.26 µM | 0.07 µM | 0.25 µM | 21% | 37% | 0.62 µM | 0.25 µM |  | COc1ccc(/C=C/C(=O)N2CCN(C(=O)CCCCC(c3ccccc3)c3ccccc3)CC2)cc1 [SH-123A]
9 |  |  |  |  |  |  |  |  |  |  |  |  |  |  |  | 35 µM | O=C(C(c1ccccc1)C1CCCCC1)N1CCN(CC(c2ccccc2)c2ccccc2)CC1 (stereo not shown) [Φ, Cy; CHCO; N; 1; CHΦ2]
10 | 0.15 µM | 20% | 41% | 0.44 µM | 0.15 µM | 0.12 µM | 20% | 45% | 0.45 µM | 0.12 µM | 0.83 µM | 11% | 21% | 1.6 µM | 0.83 µM |  | Nc1ccc(/C=C/C(=O)N2CCN(C(=O)CCCCC(c3ccccc3)c3ccccc3)CC2)cc1 [SH-134]
